Numbers after ± are expanded uncertainties.
Experiment: xn = mol fraction of the nth substance listed
Conditions: 101 kPa, Liquid; for viscosity: Falling or rolling sphere viscometry; for mass density: Vibrating tube method

## CCCC(=O)OCC [ethyl butanoate] + CCCCO
288.15 K, x1 = 0.1
  viscosity: 2.336 ± 0.05 mPa·s
  mass density: 822.84 ± 0.21 kg/m3
288.15 K, x1 = 0.2001
  viscosity: 1.762 ± 0.038 mPa·s
  mass density: 831.39 ± 0.21 kg/m3
288.15 K, x1 = 0.2999
  viscosity: 1.408 ± 0.03 mPa·s
  mass density: 839.43 ± 0.21 kg/m3
288.15 K, x1 = 0.3998
  viscosity: 1.186 ± 0.026 mPa·s
  mass density: 846.96 ± 0.22 kg/m3
288.15 K, x1 = 0.5
  viscosity: 1.022 ± 0.022 mPa·s
  mass density: 854.06 ± 0.22 kg/m3
288.15 K, x1 = 0.5999
  viscosity: 0.9212 ± 0.02 mPa·s
  mass density: 860.72 ± 0.23 kg/m3
288.15 K, x1 = 0.6998
  viscosity: 0.8393 ± 0.018 mPa·s
  mass density: 867 ± 0.24 kg/m3
288.15 K, x1 = 0.7999
  viscosity: 0.785 ± 0.017 mPa·s
  mass density: 872.95 ± 0.25 kg/m3
288.15 K, x1 = 0.9001
  viscosity: 0.7409 ± 0.016 mPa·s
  mass density: 878.66 ± 0.26 kg/m3
288.15 K, x1 = 1
  viscosity: 0.7224 ± 0.016 mPa·s
  mass density: 884.16 ± 0.27 kg/m3
293.15 K, x1 = 0.1
  viscosity: 2.037 ± 0.044 mPa·s
  mass density: 818.8 ± 0.21 kg/m3
293.15 K, x1 = 0.2001
  viscosity: 1.581 ± 0.034 mPa·s
  mass density: 827.16 ± 0.21 kg/m3
293.15 K, x1 = 0.2999
  viscosity: 1.279 ± 0.027 mPa·s
  mass density: 835.01 ± 0.21 kg/m3
293.15 K, x1 = 0.3998
  viscosity: 1.085 ± 0.023 mPa·s
  mass density: 842.37 ± 0.22 kg/m3
293.15 K, x1 = 0.5
  viscosity: 0.9419 ± 0.02 mPa·s
  mass density: 849.32 ± 0.22 kg/m3
293.15 K, x1 = 0.5999
  viscosity: 0.8544 ± 0.018 mPa·s
  mass density: 855.86 ± 0.23 kg/m3
293.15 K, x1 = 0.6998
  viscosity: 0.7817 ± 0.017 mPa·s
  mass density: 862.01 ± 0.24 kg/m3
293.15 K, x1 = 0.7999
  viscosity: 0.7316 ± 0.016 mPa·s
  mass density: 867.86 ± 0.25 kg/m3
293.15 K, x1 = 0.9001
  viscosity: 0.6958 ± 0.015 mPa·s
  mass density: 873.47 ± 0.26 kg/m3
293.15 K, x1 = 1
  viscosity: 0.6808 ± 0.015 mPa·s
  mass density: 878.9 ± 0.27 kg/m3
298.15 K, x1 = 0.1
  viscosity: 1.841 ± 0.039 mPa·s
  mass density: 814.75 ± 0.21 kg/m3
298.15 K, x1 = 0.2001
  viscosity: 1.427 ± 0.031 mPa·s
  mass density: 822.9 ± 0.21 kg/m3
298.15 K, x1 = 0.2999
  viscosity: 1.166 ± 0.025 mPa·s
  mass density: 830.57 ± 0.21 kg/m3
298.15 K, x1 = 0.3998
  viscosity: 0.9988 ± 0.022 mPa·s
  mass density: 837.77 ± 0.22 kg/m3
298.15 K, x1 = 0.5
  viscosity: 0.8734 ± 0.019 mPa·s
  mass density: 844.57 ± 0.22 kg/m3
298.15 K, x1 = 0.5999
  viscosity: 0.7967 ± 0.017 mPa·s
  mass density: 850.97 ± 0.23 kg/m3
298.15 K, x1 = 0.6998
  viscosity: 0.7315 ± 0.016 mPa·s
  mass density: 857 ± 0.24 kg/m3
298.15 K, x1 = 0.7999
  viscosity: 0.6849 ± 0.015 mPa·s
  mass density: 862.74 ± 0.25 kg/m3
298.15 K, x1 = 0.9001
  viscosity: 0.656 ± 0.014 mPa·s
  mass density: 868.27 ± 0.26 kg/m3
298.15 K, x1 = 1
  viscosity: 0.643 ± 0.014 mPa·s
  mass density: 873.62 ± 0.27 kg/m3
303.15 K, x1 = 0.1
  viscosity: 1.648 ± 0.035 mPa·s
  mass density: 810.68 ± 0.21 kg/m3
303.15 K, x1 = 0.2001
  viscosity: 1.292 ± 0.028 mPa·s
  mass density: 818.63 ± 0.21 kg/m3
303.15 K, x1 = 0.2999
  viscosity: 1.068 ± 0.023 mPa·s
  mass density: 826.12 ± 0.22 kg/m3
303.15 K, x1 = 0.3998
  viscosity: 0.9215 ± 0.02 mPa·s
  mass density: 833.15 ± 0.22 kg/m3
303.15 K, x1 = 0.5
  viscosity: 0.8111 ± 0.017 mPa·s
  mass density: 839.8 ± 0.23 kg/m3
303.15 K, x1 = 0.5999
  viscosity: 0.7434 ± 0.016 mPa·s
  mass density: 846.07 ± 0.23 kg/m3
303.15 K, x1 = 0.6998
  viscosity: 0.6856 ± 0.015 mPa·s
  mass density: 851.98 ± 0.24 kg/m3
303.15 K, x1 = 0.7999
  viscosity: 0.6447 ± 0.014 mPa·s
  mass density: 857.62 ± 0.25 kg/m3
303.15 K, x1 = 0.9001
  viscosity: 0.6181 ± 0.013 mPa·s
  mass density: 863.05 ± 0.26 kg/m3
303.15 K, x1 = 1
  viscosity: 0.6072 ± 0.013 mPa·s
  mass density: 868.33 ± 0.27 kg/m3

From the NIST ThermoML archive (doi:10.1021/je5005752)
